Where a name gives a salt, the structure may show the parent alone.
Key:
[1] = test system: Cdc7 (pS53MCM2 levels in HCT116 cells); test: Cdc7 Cell Pharmacodynamics Assay Method 1: pS53MCM2 levels in HCT116 cells, 6 hours; format: cell-based; conditions: for EC50: Homo sapiens, HCT-116, 6 h, read-out: Biomarker Method 1 (pEC50) (converted)
Source text: This protocol describes a method to investigate the inhibition of Cdc7 activity of compounds by measuring pS53MCM2 levels in cells after treatment.
• HCT116 cells (wild type P53 positive) • McCoys 5A media (PAA Laboratories Ltd, E15-022) • 10% FCS (Sera Laboratories International Ltd, EU000F Batch:108005) • 100× L-Glutamine (Invitrogen, 25030-024) • D-PBS without CaCl2 and MgCl2 (Invitrogen, ref 14190-094) • Trypsin/EDTA (Invitrogen 25300-054) • 2% BSA in PBS • Cell Extraction Buffer (Invitrogen FNN0011) • Protease inhibitor cocktail (Sigma P-2714) • PMSF 0.3M stock in DMSO (Sigma P7626) • Antibody-rabbit pMCM2 Ser53 (Bethyl #A300-756A) • Antibody-goat MCM2 (Bethyl #A300-122A) • Antibody-goat Anti Rabbit IgG HRP (Perbio Science UK Ltd 31462) • 1×PBS • FACE Wash buffer (0.02% Triton X100 in 1×PBS) • SuperSignal ELISA Pico Chemiluminescent Substrate (Perbio Science UK Ltd 37070) Method • 72 hours prior to the start of the experiment plate 1×10^6 HCT 116 cells in a 150 cm^2 flask in complete McCoys 5A media (+10% FCS+1× L-glutamine). • Plate 20,000 HCT116 cells per well in standard TC treated 96 well plate in 100 μL complete McCoys 5A media. • Allow cells to settle overnight in incubator set at 37° C. and 5% CO2. • Remove intermediate plate from fridge and place at 37° C. overnight to allow to equilibrate. • Cell treatment: cell assay plate 100 μL; daughter to cell transfer volume 3.33 μL; daughter volume 45 μL; mother plate to daughter volume 5 μL. • Once all cells are treated remove the cells to the incubator and incubate for 6 hours. • Dilute the capture antibody (total MCM2#A300-122A) 1 in 250 in the required volume of PBS (5 mL per assay plate) and add 50 μL to each well of a Hybond plate excluding wells 12E to 12H. In these wells add 50 μL PBS. Seal the plate and incubate at room temperature for a minimum of 2 hours. • Defrost aliquot of Invitrogen Cell Extraction Buffer (FNN0011) on ice and supplement with appropriate volume of both Sigma protease inhibitor cocktail (P-2714) and PMSF (final conc 1 mM from a 1 M stock in DMSO). • After the 6 hour cell treatment time tap out the media from the assay plates and place them in the −70° C. freezer for at least 5 minutes. • Remove plates from freezer and add 20 μL of ice cold complete lysis buffer on ice. Incubate cells for 30 minutes at 4° C. • Add 80 μL per well 2% BSA. • Transfer 80 μL from the lysis plate to the same wells in the capture/ELISA plate. Cover with plate seal and incubate plates overnight at 4° C. • Wash plates with PBS, remove any residual remaining liquid and add 50 μL per well of pMCM2 Ser53 antibody (#A300-756A) diluted 1 in 100 in 2% BSA. Cover plate and incubate at room temperature for 2 hours with gentle shaking. • Wash plates with PBS, remove any residual remaining liquid and Incubate with 50 μL goat anti rabbit antibody (1 in 800 dilution in 2% BSA) for 1 hour at room temperature. • Wash plates with PBS, remove any residual remaining liquid and add 50 μL mixed SuperSignal Pico substrate. • Incubate each plate for 5 minutes at room temperature shielding the plates from direct light (with a cover plate). Read plates with the luminescent detection. Method 2A and 2B

[2] = molecular target: Cdc7/ASK (Homo sapiens, UniProt O00311); test: Cdc7 Biochemical Assay Method 1: 384 well ELISA, whole protein substrate MCM2, antibody against Phospho MCM2 (S53); set-up: purchased; conditions: 2 μM ATP, read-out: Biochemical Method 1 (pIC50) (converted)
How it was run: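 MCM2 protein substrate was coated on nickel-chelate plates, then Cdc7/ASK was added with 2 μM ATP in 50 mM Tris-HCl pH 8.5, 10 mM MgCl2, 1 mM DTT, 4% DMSO, 90 min at room temperature. Phospho-MCM2 (S53) was detected by ELISA with an AP secondary and PNPP absorbance. IC50 was derived from % inhibition versus no-compound and no-enzyme controls.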

Sequence of Cdc7/ASK (O00311 whole entry): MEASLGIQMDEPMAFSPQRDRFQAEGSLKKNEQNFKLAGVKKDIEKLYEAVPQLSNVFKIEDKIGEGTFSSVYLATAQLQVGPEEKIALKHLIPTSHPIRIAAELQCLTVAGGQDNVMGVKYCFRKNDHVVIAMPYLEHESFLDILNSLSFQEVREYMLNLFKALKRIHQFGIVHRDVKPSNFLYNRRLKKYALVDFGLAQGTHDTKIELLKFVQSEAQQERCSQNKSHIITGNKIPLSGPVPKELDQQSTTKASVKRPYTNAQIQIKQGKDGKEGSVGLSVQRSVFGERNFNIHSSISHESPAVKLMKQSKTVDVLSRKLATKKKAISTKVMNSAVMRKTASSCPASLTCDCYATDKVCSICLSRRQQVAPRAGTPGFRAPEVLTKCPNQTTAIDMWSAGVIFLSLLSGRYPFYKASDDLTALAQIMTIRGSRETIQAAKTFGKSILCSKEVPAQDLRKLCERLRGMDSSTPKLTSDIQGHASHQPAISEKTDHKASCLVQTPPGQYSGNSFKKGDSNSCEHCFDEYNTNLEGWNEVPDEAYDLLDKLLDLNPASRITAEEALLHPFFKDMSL
Sequence of Cdc7/ASK (Q9UBU7 whole entry partner): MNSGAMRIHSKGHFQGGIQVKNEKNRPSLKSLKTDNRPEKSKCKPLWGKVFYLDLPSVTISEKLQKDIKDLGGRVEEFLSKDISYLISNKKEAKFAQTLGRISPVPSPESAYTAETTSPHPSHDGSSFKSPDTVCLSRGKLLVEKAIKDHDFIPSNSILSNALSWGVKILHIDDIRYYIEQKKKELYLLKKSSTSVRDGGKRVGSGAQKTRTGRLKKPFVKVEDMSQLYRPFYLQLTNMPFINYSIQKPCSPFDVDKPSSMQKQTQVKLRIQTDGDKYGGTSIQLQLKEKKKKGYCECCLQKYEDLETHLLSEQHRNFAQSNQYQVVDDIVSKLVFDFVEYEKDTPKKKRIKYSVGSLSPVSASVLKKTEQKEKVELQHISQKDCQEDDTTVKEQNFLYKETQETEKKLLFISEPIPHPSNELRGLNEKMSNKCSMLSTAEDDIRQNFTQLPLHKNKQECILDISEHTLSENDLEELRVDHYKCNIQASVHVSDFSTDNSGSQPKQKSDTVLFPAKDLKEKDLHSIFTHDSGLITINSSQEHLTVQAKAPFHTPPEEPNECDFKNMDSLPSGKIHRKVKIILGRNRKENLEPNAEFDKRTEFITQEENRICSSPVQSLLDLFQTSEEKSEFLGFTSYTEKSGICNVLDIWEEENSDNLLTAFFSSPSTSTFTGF

EC50 [1] [µM] | IC50 [2] [µM] | Biomarker Method 1 (pEC50) [1] | SMILES
0.468 | 0.00229 |  | CC(=O)N1CCN(c2nc(-c3ccncc3)[nH]c(=O)c2Cl)C[C@@H]1C [Compound 78]
0.107 | 0.0141 |  | C[C@H]1CN(c2nc(-c3ccncc3)[nH]c(=O)c2Cl)CCN1C [Compound 88]
2.82 | 0.0355 |  | C[C@@H]1CN(c2nc(-c3ccncc3)[nH]c(=O)c2Cl)[C@H](C)CN1 [Compound 166]
0.832 | 0.00813 |  | O=c1[nH]c(-c2ccncc2)nc(N2CCCC(O)C2)c1Cl (centres unmarked) [Compound 167]
2.4 | 0.00234 |  | CC1(C)CN(c2nc(-c3ccncc3)[nH]c(=O)c2Cl)CCN1 [Compound 361]
0.0617 | 0.002 |  | CC(C)[C@H]1CN(c2nc(-c3ccncc3)[nH]c(=O)c2Cl)CCN1 [Compound 309]
0.0794 | 0.00257 |  | O=c1[nH]c(-c2ccncc2)nc(N2CCSCC2)c1Cl [Compound 128]
0.562 | 0.0302 |  | COc1ccc(C2CN(c3nc(-c4ccncc4)[nH]c(=O)c3Cl)CCN2)cc1 (centres unmarked) [Compound 169]
0.0741 | 0.00229 |  | O=c1[nH]c(-c2ccncc2)nc(N2CCOCC2)c1Cl [Compound 89, 5-chloro-4-morpholino-2-(4-pyridyl)-1H-pyrimidin-6-one]
0.195 | 0.00933 |  | CN1CCN(c2nc(-c3ccncc3)[nH]c(=O)c2Cl)CC1 [Compound 81]
0.112 | 0.00813 |  | O=c1[nH]c(-c2ccncc2)nc(N2CCCC(F)C2)c1Cl (centres unmarked) [Compound 131]
0.191 | 0.0112 |  | CC1CN(c2nc(-c3ccncc3)[nH]c(=O)c2Cl)CCN1C (centres unmarked) [Compound 28]
0.977 | 0.0316 |  | CC(C)CN1CCN(c2nc(-c3ccncc3)[nH]c(=O)c2Cl)CC1 [Compound 82]
0.117 | 0.00562 |  | CC1(C)CN(c2nc(-c3ccncc3)[nH]c(=O)c2Cl)CCO1 [Compound 121]
0.724 | 0.0209 |  | O=c1[nH]c(-c2ccncc2)nc(N2CCN[C@@H](Cc3ccccc3)C2)c1Cl [Compound 164]
 | 0.0209 | 5.56 | O=c1[nH]c(-c2ccncc2)nc(N2CCCC(C(F)(F)F)C2)c1Cl (centres unmarked) [Compound 176]
0.0708 | 0.00759 |  | O=c1[nH]c(-c2ccncc2)nc(N2CCC(F)CC2)c1Cl [Compound 106]
0.661 | 0.0234 |  | O=c1[nH]c(-c2ccncc2)nc(N2CCC(C(F)(F)F)C2)c1Cl (centres unmarked) [Compound 135]
0.0661 | 0.00398 |  | CC(F)(F)C1CN(c2nc(-c3ccncc3)[nH]c(=O)c2Cl)CCN1 (centres unmarked) [Compound 156]
0.457 | 0.00603 |  | C[C@@H]1CN(c2nc(-c3ccncc3)[nH]c(=O)c2Cl)CCN1 [Compound 140]
0.214 | 0.00513 |  | O=c1[nH]c(-c2ccncc2)nc(N2CCNC(c3cccs3)C2)c1Cl (centres unmarked) [Compound 177]
0.871 | 0.00209 |  | O=c1[nH]c(-c2ccncc2)nc(N2CCN[C@@H](CO)C2)c1Cl [Compound 129]
0.0589 | 0.00347 |  | CC(C)C1CN(c2nc(-c3ccnc(F)c3)[nH]c(=O)c2Cl)CCN1 (centres unmarked) [Compound 310]
0.11 | 0.00195 |  | O=c1[nH]c(-c2ccncc2)nc(N2CCNCC2)c1Cl [Compound 416, 5-chloro-4-piperazin-1-yl-2-(4-pyridyl)-1H-pyrimidin-6-one hydrochloride]
0.155 | 0.0038 |  | O=c1[nH]c(-c2ccncc2)nc(N2CCC(O)CC2)c1Cl [Compound 104]
0.417 | 0.00661 |  | CC1CCN(c2nc(-c3ccncc3)[nH]c(=O)c2Cl)CC1 [Compound 122]
0.0447 | 0.00437 |  | O=c1[nH]c(-c2ccncc2)nc(N2CCNC(C(F)(F)F)C2)c1Cl (centres unmarked) [Compound 101]

More lines, now with the values behind:

SMILES | EC50 [1] [µM] | IC50 [2] [µM] | Biomarker Method 1 (pEC50) [1]
O=C(OCc1ccccc1)N1CCN(c2nc(-c3ccncc3)[nH]c(=O)c2Cl)CC1 [Compound 112] | 0.759 | 0.00617 | 
O=c1[nH]c(-c2ccncc2)nc(N2C3CCCC2COC3)c1Cl [Compound 154] | 0.0631 | 0.00245 | 
O=c1[nH]c(-c2ccncc2)nc(N2CCCCCC2)c1Cl [Compound 114] | 1.55 | 0.0191 | 
O=c1[nH]c(-c2ccncc2)nc(N2CCC(F)(F)CC2)c1Cl [Compound 127] | 0.224 | 0.0457 | 
O=c1[nH]c(-c2ccncc2)nc(N2CCCN(CC(F)(F)F)CC2)c1Cl [Compound 142] | 0.661 | 0.0155 | 
O=C(N1CCN(c2nc(-c3ccncc3)[nH]c(=O)c2Cl)CC1)C(F)(F)F [Compound 76] | 0.182 | 0.00347 | 
C[C@H]1CN(c2nc(-c3ccnc(F)c3)[nH]c(=O)c2Cl)CCN1 [Compound 171] | 0.0724 | 0.00117 | 
O=c1[nH]c(-c2ccncc2)nc(N2CCOC(C(F)(F)F)C2)c1Cl (centres unmarked) [Compound 159] | 0.209 | 0.00661 | 
O=c1[nH]c(-c2ccncc2)nc(N2CCN(c3cccc(F)c3)CC2)c1Cl [Compound 111] | 0.759 | 0.0162 | 
O=c1[nH]c(-c2ccncc2)nc(N2CCNC3(CCC3)C2)c1Cl [Compound 158] | 1.74 | 0.0195 | 
O=c1[nH]c(-c2ccncc2)nc(N2CCN(CC3CCCCC3)CC2)c1Cl [Compound 85] | 0.891 | 0.0479 | 
CCN1CCN(c2nc(-c3ccncc3)[nH]c(=O)c2Cl)CC1 [Compound 31] | 0.398 | 0.0398 | 
CS(=O)(=O)N1CCCN(c2nc(-c3ccncc3)[nH]c(=O)c2Cl)CC1 [Compound 145] | 0.269 | 0.00251 | 
O=c1[nH]c(-c2ccncc2)nc(N2CCCN(CCO)CC2)c1Cl [Compound 136] | 2.09 | 0.02 | 
N#CC1CCN(c2nc(-c3ccncc3)[nH]c(=O)c2Cl)CC1 [Compound 153] | 0.126 | 0.00178 | 
CC(C)(C)[C@H]1CN(c2nc(-c3ccnc(F)c3)[nH]c(=O)c2Cl)CCN1.Cl [Compound 160] |  | 0.00162 | 7.50
O=c1[nH]c(-c2ccncc2)nc(N2CCN(CC(F)(F)C(F)F)CC2)c1Cl [Compound 152] | 0.871 | 0.0195 | 
O=c1[nH]c(-c2ccncc2)nc(N2CCCC(C(F)(F)F)C2)c1Cl (centres unmarked) [Compound 107] |  | 0.00708 | 6.44
O=C(N1CCCN(c2nc(-c3ccncc3)[nH]c(=O)c2Cl)CC1)C(F)(F)F [Compound 144] | 0.589 | 0.00933 | 
O=c1[nH]c(-c2ccncc2)nc(N2CCC3(CC2)COC3)c1Cl [Compound 151] | 0.501 | 0.0347 | 
CCCN1CCCN(c2nc(-c3ccncc3)[nH]c(=O)c2Cl)CC1 [Compound 143] | 0.407 | 0.0214 | 
O=c1[nH]c(-c2ccncc2)nc(N2CCC(CO)CC2)c1Cl [Compound 109] | 0.151 | 0.00363 | 
C#CCN1CCN(c2nc(-c3ccncc3)[nH]c(=O)c2Cl)CC1 [Compound 150] | 0.427 | 0.0141 | 
O=c1[nH]c(-c2ccncc2)nc(N2CCN(CCO)CC2)c1Cl [Compound 125] | 0.912 | 0.0407 | 
CC(C)CN1CCC(c2nc(-c3ccnc(F)c3)[nH]c(=O)c2Cl)CC1 [Compound 87] | 0.148 | 0.00302 | 

Reference: patent US10919896B2, “Preparation and uses of pyrimidinone derivatives” (Cancer Research Technology Limited, priority 2016, dated 2021)
